# Assay results: ChEMBL document CHEMBL4507299, “Data for DCP probe PF-04554878” (2021)
# Legend:
# [1] = biological target: Serine/threonine-protein kinase TNNI3K (Homo sapiens) (UniProt Q59H18)
# [2] = biological target: Mitogen-activated protein kinase 14 (Homo sapiens) (UniProt Q16539); assay: SAPK2A/p38 Invitrogen kinase activity assay; conditions: Compound concentration 1.0 uM
# [3] = tested on: Ribosomal protein S6 kinase beta-1 (Homo sapiens), P23443 [UNDEFINED MUTATION]; assay: S6K T389D D3E Invitrogen kinase activity assay; conditions: Compound concentration 1.0 uM
# [4] = biological target: Serine/threonine-protein kinase ULK3 (Homo sapiens) (UniProt Q6PHR2)
# Sequence of Serine/threonine-protein kinase ULK3 (Homo sapiens) (Q6PHR2 whole entry): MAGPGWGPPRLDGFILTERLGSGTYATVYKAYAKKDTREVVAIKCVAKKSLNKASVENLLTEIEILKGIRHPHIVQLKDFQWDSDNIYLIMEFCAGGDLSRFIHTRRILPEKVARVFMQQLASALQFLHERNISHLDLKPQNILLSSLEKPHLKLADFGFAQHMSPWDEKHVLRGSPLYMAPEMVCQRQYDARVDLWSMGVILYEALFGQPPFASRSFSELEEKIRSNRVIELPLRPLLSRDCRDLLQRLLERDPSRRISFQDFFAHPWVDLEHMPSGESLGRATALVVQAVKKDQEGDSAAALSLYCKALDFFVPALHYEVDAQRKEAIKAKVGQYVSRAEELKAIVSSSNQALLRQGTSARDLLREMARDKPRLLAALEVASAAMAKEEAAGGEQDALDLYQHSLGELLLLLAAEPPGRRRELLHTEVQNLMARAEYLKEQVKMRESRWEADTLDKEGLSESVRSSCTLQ
# [5] = biological target: Mitogen-activated protein kinase kinase kinase 20 (Homo sapiens) (UniProt Q9NYL2)
# [6] = biological target: Angiopoietin-1 receptor (Homo sapiens) (UniProt Q02763)
# [7] = biological target: T1, Serine/threonine-protein kinase TAO3 (Homo sapiens) (UniProt Q9H2K8)
# T1 sequence (whole entry): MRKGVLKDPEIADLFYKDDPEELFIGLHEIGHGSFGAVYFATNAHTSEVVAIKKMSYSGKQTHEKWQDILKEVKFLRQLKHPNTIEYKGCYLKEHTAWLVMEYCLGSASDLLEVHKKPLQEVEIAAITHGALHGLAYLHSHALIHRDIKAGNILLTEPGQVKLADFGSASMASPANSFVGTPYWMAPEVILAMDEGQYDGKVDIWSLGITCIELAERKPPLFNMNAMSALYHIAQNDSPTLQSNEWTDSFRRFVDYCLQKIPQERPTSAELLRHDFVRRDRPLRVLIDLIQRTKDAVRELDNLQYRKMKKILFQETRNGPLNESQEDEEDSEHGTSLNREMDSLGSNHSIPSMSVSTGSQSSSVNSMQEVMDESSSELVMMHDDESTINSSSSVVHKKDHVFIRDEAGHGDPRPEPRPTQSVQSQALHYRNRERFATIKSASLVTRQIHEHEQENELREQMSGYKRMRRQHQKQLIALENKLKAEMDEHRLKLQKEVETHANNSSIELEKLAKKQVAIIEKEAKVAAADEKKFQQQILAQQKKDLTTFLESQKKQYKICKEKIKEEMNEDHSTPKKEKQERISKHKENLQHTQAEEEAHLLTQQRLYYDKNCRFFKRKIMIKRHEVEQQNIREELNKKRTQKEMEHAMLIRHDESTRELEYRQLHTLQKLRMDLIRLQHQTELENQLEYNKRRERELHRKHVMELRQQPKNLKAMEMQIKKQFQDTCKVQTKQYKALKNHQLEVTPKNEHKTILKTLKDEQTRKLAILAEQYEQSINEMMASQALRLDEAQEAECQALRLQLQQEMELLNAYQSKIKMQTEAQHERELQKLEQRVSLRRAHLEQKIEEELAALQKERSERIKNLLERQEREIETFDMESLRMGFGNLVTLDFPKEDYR
# [8] = biological target: T2, Sigma intracellular receptor 2 (Homo sapiens, UniProt Q5BJF2); conditions: Compound concentration 10.0 uM
# T2 sequence (Q5BJF2 whole entry): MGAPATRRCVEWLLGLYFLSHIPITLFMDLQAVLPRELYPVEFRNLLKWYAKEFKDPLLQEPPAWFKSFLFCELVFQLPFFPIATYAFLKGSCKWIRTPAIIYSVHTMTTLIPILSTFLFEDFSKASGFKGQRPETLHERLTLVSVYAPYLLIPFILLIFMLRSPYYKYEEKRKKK
# [9] = biological target: Insulin receptor-related protein (Homo sapiens) (UniProt P14616)
# [10] = biological target: Casein kinase I isoform alpha (Homo sapiens) (UniProt P48729)
# Sequence of Casein kinase I isoform alpha (Homo sapiens) (P48729 2-337 limits assumed): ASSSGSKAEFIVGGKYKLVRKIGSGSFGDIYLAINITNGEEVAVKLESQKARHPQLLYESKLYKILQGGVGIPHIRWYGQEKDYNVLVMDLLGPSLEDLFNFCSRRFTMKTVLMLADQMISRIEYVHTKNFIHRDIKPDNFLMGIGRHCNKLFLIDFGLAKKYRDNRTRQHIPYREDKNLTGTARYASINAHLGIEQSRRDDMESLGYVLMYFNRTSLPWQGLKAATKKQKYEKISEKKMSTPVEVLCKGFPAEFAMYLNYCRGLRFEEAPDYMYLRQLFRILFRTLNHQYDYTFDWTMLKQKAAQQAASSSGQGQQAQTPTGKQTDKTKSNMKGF
# [11] = biological target: Fibroblast growth factor receptor 1 (Homo sapiens) (UniProt P11362); assay: FGFR1 Invitrogen kinase activity assay; conditions: Compound concentration 1.0 uM
# [12] = biological target: 3-phosphoinositide-dependent protein kinase 1 (Homo sapiens) (UniProt O15530); assay: PDK1 Invitrogen kinase activity assay; conditions: Compound concentration 1.0 uM
# [13] = tested on: Epidermal growth factor receptor (Homo sapiens), P00533 [UNDEFINED MUTATION]
# [14] = biological target: Glycogen synthase kinase-3 beta (Homo sapiens, UniProt P49841)
# [15] = biological target: Protein kinase C eta type (Homo sapiens) (UniProt P24723)
# [16] = biological target: 5-hydroxytryptamine receptor 2B (Homo sapiens) (UniProt P41595); conditions: Compound concentration 10.0 uM
# [17] = biological target: Serine/threonine-protein kinase PLK2 (Homo sapiens) (UniProt Q9NYY3)
# [18] = tested on: Tyrosine-protein kinase ABL1 (Homo sapiens), P00519 [F317L]
# Sequence of Tyrosine-protein kinase ABL1 (Homo sapiens), P00519 [F317L] (P00519 whole entry F317L, canonical isoform): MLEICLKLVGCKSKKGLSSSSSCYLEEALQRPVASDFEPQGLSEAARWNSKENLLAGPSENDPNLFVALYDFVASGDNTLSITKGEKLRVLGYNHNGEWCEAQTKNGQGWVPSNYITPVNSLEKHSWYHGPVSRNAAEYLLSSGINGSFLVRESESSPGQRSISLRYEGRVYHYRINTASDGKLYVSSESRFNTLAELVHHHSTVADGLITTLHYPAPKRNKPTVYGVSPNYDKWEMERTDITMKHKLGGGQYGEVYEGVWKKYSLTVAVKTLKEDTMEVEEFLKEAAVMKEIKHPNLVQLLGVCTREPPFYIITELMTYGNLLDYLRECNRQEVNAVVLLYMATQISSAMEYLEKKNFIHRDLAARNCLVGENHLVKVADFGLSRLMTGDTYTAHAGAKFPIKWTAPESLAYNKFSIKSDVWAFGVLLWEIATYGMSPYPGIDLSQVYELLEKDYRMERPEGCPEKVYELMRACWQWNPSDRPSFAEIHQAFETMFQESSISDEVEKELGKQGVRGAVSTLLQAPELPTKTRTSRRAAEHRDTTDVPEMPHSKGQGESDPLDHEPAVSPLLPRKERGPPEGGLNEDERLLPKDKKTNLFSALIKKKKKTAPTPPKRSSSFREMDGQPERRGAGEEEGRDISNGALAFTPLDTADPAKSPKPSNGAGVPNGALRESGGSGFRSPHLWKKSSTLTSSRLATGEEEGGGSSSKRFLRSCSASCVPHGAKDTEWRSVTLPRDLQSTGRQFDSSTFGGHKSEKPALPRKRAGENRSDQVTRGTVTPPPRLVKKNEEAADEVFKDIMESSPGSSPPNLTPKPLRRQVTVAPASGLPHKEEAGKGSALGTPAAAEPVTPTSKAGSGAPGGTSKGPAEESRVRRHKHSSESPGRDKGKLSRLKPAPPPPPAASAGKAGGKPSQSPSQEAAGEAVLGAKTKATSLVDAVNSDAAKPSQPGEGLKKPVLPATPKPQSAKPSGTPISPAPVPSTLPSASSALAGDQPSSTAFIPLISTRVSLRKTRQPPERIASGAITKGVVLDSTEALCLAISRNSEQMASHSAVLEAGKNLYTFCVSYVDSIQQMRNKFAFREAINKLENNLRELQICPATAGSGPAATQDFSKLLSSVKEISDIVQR
# [19] = biological target: Casein kinase I isoform gamma-3 (Homo sapiens) (UniProt Q9Y6M4)
# [20] = biological target: Dual specificity mitogen-activated protein kinase kinase 4 (Homo sapiens) (UniProt P45985)
# Sequence of Dual specificity mitogen-activated protein kinase kinase 4 (Homo sapiens) (P45985 whole entry, canonical isoform): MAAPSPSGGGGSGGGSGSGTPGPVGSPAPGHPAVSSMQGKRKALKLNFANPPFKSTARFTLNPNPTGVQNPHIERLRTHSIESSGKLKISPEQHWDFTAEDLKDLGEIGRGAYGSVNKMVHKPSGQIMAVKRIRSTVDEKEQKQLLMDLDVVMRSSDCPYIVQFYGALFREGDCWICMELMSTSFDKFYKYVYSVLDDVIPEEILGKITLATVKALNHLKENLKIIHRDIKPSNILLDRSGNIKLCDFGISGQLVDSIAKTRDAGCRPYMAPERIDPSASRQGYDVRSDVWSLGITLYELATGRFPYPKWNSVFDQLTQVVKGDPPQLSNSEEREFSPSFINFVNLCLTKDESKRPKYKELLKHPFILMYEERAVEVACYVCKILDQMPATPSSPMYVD
# [21] = biological target: Casein kinase I isoform delta (Homo sapiens) (UniProt P48730)
# [22] = tested on: ALK tyrosine kinase receptor (Homo sapiens), Q9UM73 [C1156Y]
# [23] = biological target: Tyrosine-protein kinase BTK (Homo sapiens) (UniProt Q06187); assay: BTK Invitrogen kinase activity assay; conditions: Compound concentration 1.0 uM
# [24] = biological target: Serine/threonine-protein kinase PRP4 homolog (Homo sapiens) (UniProt Q13523)
# [25] = biological target: Ephrin type-B receptor 4 (Homo sapiens) (UniProt P54760)
# [26] = biological target: Serine/threonine-protein kinase DCLK2 (Homo sapiens) (UniProt Q8N568)
# Sequence of Serine/threonine-protein kinase DCLK2 (Homo sapiens) (Q8N568 whole entry): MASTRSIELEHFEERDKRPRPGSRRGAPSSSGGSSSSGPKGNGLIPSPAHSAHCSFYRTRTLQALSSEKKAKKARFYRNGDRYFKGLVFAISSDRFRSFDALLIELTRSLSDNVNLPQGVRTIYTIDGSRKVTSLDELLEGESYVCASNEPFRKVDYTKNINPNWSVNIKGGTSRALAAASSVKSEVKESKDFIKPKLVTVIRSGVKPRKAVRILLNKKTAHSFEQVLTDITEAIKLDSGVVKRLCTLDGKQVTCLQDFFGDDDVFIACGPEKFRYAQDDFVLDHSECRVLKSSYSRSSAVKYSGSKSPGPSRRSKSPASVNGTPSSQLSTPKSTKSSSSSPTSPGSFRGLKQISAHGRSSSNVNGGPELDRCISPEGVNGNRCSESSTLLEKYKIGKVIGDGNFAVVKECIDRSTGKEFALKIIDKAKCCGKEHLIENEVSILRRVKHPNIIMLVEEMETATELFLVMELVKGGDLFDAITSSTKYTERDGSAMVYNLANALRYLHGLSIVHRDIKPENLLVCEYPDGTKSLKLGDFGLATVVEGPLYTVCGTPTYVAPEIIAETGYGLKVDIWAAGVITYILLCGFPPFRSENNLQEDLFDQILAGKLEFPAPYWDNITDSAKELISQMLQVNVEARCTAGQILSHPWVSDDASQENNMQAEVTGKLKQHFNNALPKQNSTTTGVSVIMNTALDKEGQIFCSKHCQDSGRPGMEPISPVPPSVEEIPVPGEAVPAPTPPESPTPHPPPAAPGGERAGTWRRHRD
# [27] = biological target: Mitogen-activated protein kinase 8 (Homo sapiens) (UniProt P45983)
# [28] = tested on: Receptor-type tyrosine-protein kinase FLT3 (Homo sapiens), P36888 [K663Q]
# [29] = biological target: Inhibitor of nuclear factor kappa-B kinase subunit alpha (Homo sapiens) (UniProt O15111)
# Sequence of Inhibitor of nuclear factor kappa-B kinase subunit alpha (Homo sapiens) (O15111 whole entry): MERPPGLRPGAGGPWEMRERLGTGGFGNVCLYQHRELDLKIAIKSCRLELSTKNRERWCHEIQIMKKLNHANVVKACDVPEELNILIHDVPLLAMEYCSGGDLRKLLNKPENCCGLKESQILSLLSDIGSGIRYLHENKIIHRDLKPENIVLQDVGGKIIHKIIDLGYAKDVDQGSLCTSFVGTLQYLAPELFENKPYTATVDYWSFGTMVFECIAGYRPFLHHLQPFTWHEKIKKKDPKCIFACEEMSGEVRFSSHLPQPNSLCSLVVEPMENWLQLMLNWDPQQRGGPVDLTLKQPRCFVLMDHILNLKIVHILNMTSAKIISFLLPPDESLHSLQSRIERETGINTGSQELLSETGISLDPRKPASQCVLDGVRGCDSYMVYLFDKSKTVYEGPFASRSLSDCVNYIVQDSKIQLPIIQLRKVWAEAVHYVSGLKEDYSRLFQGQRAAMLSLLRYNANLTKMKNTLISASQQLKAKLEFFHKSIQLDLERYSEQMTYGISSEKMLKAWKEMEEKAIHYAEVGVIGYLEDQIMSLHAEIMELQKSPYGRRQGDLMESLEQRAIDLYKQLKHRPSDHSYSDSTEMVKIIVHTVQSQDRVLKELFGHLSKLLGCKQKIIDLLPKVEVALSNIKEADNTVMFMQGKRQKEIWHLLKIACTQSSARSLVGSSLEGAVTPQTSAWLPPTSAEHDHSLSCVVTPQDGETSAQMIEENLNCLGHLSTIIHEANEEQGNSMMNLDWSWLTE
# [30] = biological target: Calcium/calmodulin-dependent protein kinase kinase 2 (Homo sapiens) (UniProt Q96RR4)
# [31] = biological target: Ephrin type-A receptor 8 (Homo sapiens) (UniProt P29322)
# Sequence of Ephrin type-A receptor 8 (Homo sapiens) (P29322 whole entry): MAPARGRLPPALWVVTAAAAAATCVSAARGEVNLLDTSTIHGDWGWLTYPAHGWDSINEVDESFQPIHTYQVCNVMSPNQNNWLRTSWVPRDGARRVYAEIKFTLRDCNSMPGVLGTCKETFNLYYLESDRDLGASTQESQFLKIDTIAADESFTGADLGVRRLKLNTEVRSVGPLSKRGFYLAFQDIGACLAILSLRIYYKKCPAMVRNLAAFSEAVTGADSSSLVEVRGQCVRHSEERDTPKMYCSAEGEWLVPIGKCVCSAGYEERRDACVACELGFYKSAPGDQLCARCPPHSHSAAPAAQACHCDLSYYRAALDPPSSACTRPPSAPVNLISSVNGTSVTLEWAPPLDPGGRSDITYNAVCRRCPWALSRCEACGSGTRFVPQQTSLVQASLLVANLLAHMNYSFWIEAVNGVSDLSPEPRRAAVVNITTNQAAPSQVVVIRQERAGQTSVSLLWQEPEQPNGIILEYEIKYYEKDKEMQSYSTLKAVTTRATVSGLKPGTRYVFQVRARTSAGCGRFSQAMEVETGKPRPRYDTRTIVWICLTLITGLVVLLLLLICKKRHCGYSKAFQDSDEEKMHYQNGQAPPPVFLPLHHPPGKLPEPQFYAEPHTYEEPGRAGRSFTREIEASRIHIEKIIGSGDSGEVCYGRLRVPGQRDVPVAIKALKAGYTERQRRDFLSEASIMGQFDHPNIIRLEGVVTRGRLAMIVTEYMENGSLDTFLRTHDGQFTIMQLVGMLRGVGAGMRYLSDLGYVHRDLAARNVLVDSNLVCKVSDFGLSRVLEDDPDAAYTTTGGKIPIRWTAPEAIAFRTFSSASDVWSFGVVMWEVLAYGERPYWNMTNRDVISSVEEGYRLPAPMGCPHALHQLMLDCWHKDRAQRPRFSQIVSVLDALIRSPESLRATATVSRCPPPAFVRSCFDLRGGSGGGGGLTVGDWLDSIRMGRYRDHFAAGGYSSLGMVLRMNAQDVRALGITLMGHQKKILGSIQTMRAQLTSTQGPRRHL
# [32] = biological target: T2, Sigma intracellular receptor 2; assay: GPCRScan assay: inhibition of Sigma 2; design: radioligand conc. used [nm] 5.0, parental cells HEKT
# [33] = GPCRScan assay: inhibition of GABA/PBR; design: species or system Rattus norvegicus; radioligand conc. used [nm] 0.3 – 2.0, parental cells brain tissue
# [34] = Compound concentration 100.0 nM
# [35] = Compound concentration 1000.0 nM
smiles,measurement,setting,value
CNC(=O)c1ccc(Nc2ncc(C(F)(F)F)c(NCc3nccnc3N(C)S(C)(=O)=O)n2)cc1 [DEFACTINIB],residual activity,[1]; [34],100%
same,inhibition,[2],1%
same,inhibition,[3],18%
same,residual activity,[4]; [34],75%
same,residual activity,[5]; [34],100%
same,residual activity,[6]; [34],69%
same,residual activity,[7]; [34],26%
same,inhibition,[8],48.1%
same,residual activity,[9]; [34],95%
same,residual activity,[10]; [34],94%
same,inhibition,[11],64%
same,inhibition,[12],25%
same,residual activity,[13]; [34],93%
same,residual activity,[14]; [34],87%
same,residual activity,[15]; [34],86%
same,inhibition,[16],5.73%
same,residual activity,[17]; [34],77%
same,residual activity,[18]; [34],100%
same,residual activity,[19]; [34],100%
same,residual activity,[20]; [34],71%
same,residual activity,[21]; [34],98%
same,residual activity,[22]; [34],74%
same,inhibition,[23],14%
same,residual activity,[24]; [34],69%
same,residual activity,[25]; [34],94%
same,residual activity,[26]; [34],71%
same,residual activity,[27]; [34],100%
same,residual activity,[28]; [34],21%
same,residual activity,[29]; [34],98%
same,residual activity,[30]; [34],68%
same,residual activity,[31]; [34],87%
CN(c1ccnc(CNc2nc(Nc3ccc4c(c3)CC(=O)N4)ncc2C(F)(F)F)n1)S(C)(=O)=O [PF-00911705],residual activity,[1]; [35],73%
same,residual activity,[4]; [35],25%
same,residual activity,[5]; [35],100%
same,residual activity,[6]; [35],50%
same,residual activity,[7]; [35],12%
same,inhibition,[8],60.3%
same,Ki,[32],2.12 µM
same,residual activity,[9]; [35],100%
same,residual activity,[10]; [35],81%
same,residual activity,[13]; [35],83%
same,residual activity,[14]; [35],57%
same,residual activity,[15]; [35],100%
same,Ki,[33],1.48 µM
same,pKi,[33],5.83
same,inhibition,[16],13.5%
same,residual activity,[17]; [35],0.5%
same,residual activity,[18]; [35],71%
same,residual activity,[19]; [35],100%
same,residual activity,[20]; [35],23%
same,residual activity,[21]; [35],100%
same,residual activity,[22]; [35],77%
same,residual activity,[24]; [35],23%
same,residual activity,[25]; [35],96%
same,residual activity,[26]; [35],90%
same,residual activity,[27]; [35],65%
same,residual activity,[28]; [35],16%
same,residual activity,[29]; [35],57%
same,residual activity,[30]; [35],69%
same,residual activity,[31]; [35],100%
